Values quoted from earlier work as cited in patent publication US20230066947A1, “Method for the augmentation of substance abuse therapies using cannabinoid formulations” (priority 2021, published 2023).
Read-outs that look alike come from different tables or passages of the source.

Assays:
COX-2 = target: T1, COX-2 (Homo sapiens, UniProt P35354); settings: compared with common NSAIDS
T1 sequence (P35354 18-604): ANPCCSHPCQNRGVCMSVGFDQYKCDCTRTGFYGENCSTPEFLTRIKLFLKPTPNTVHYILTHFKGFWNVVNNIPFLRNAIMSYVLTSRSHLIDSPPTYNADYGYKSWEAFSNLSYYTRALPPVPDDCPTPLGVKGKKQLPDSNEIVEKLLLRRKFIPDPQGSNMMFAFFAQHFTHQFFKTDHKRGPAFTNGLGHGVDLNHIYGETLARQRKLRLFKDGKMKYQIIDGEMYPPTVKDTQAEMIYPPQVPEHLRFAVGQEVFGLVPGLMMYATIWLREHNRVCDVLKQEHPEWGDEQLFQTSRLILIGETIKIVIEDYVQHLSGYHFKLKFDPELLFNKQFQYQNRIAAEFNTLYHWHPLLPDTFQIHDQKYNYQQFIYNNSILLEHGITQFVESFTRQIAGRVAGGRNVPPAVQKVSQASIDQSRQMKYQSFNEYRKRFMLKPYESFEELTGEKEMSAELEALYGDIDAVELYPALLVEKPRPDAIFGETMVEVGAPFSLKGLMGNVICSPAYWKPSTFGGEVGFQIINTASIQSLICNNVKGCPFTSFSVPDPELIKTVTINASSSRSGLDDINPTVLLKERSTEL

[1] = test system: specific serotonin receptor linked to anti-nausea and anti-anxiety effects

For `C=C(C)[C@@H]1CCC(C)=C[C@H]1c1c(O)cc(CCCCC)c(C(=O)O)c1O` [CBDA], the bioavailability (intraperitoneal administration) is given as 80%, the bioavailability (orally ingested) is given as “approximately 20%” and the COX-2 inhibitor behavior (COX-2) is given as “same COX-2 inhibitor behavior”. The “affinity to bind to a specific serotonin receptor” value [1] was “far greater affinity”.
